In patent US12297197B2, “Pyrazolopyridine compound as RET inhibitor and application thereof” (GUANGZHOU BAIYUNSHAN PHARMACEUTICAL HOLDINGS CO., LTD. …, priority 2019, dated 2025) one finds IC50 data, which are given here for 22 compounds.

Where a name gives a salt, the structure may show the parent alone.

This experiment deals with RET kinase (Homo sapiens, UniProt P07949). The experiment in a line: In-vitro enzyme activity test, RET kinase. Conditions: ATP 20 μM; 10 concentrations 3 μM to 0.152 nM. Type of experiment: biochemical. On the procedure:
The enzyme activity was detected by a Z′-LYTE™ kinase test, and inhibitory effects of the compounds onRET and RET (V804M) kinases were evaluated with an ICs value of each compound as an index.
The compounds used for RET and RET (V804M) kinase tests were diluted 3-fold, in 10 concentration gradients ranging from 3 μM to 0.152 nM; and the content of DMSO in detection reaction was 1%.
Basic reaction buffer, 20 mM 4-(2-hydroxyethyl)piperazine-1-ethanesulfonic acid (Hepes) buffer (pH 7.5), 10 mM MgCl2. 1 mM 1,2-bis[2-[bis(carboxymethyl)amino]ethoxy]ethane (EGTA), 0.02% polyoxyethylene lauryl ether (Brij35), 0.02 mg/mL bovine serum albumin, 0.1 mM of Na3VO4, 2 mM dithiothreitol (DTT) and 1% DMSO.
The compounds to be tested were dissolved in a 100% DMSO system to be diluted to 10 mM for further use. The solution was diluted by using Integra Viaflo Assist.
Test conditions: concentrations of RET kinase, peptide substrate CHKtide and adenosine triphosphate (ATP) were […], 1000 μM and 20 μM, respectively, and concentrations of RET (V804M) kinase, substrate peptide and ATP were […], 1000 μM and 30 μM, respectively.
Reaction process: compound solutions of different concentrations were added to a kinase/peptide solution prepared according to the test conditions, the obtained solution was incubated at room temperature for 20 minutes, and then 33P-ATP of corresponding concentrations were added, and the obtained solution was incubated at room temperature for 120 minutes. The radioactivity was detected by a filter-binding method.
The reaction was terminated by adding phosphoric acid (concentration, 0.5%) into a kinase reaction solution, and plate reading was carried out with an Envision instrument.
Data were converted into phosphorylation rate and inhibition rate, and the parametric curve was fitted by using GraphPad Software to obtain IC50 data of the compounds.

Chain of RET kinase (P07949 29-1114): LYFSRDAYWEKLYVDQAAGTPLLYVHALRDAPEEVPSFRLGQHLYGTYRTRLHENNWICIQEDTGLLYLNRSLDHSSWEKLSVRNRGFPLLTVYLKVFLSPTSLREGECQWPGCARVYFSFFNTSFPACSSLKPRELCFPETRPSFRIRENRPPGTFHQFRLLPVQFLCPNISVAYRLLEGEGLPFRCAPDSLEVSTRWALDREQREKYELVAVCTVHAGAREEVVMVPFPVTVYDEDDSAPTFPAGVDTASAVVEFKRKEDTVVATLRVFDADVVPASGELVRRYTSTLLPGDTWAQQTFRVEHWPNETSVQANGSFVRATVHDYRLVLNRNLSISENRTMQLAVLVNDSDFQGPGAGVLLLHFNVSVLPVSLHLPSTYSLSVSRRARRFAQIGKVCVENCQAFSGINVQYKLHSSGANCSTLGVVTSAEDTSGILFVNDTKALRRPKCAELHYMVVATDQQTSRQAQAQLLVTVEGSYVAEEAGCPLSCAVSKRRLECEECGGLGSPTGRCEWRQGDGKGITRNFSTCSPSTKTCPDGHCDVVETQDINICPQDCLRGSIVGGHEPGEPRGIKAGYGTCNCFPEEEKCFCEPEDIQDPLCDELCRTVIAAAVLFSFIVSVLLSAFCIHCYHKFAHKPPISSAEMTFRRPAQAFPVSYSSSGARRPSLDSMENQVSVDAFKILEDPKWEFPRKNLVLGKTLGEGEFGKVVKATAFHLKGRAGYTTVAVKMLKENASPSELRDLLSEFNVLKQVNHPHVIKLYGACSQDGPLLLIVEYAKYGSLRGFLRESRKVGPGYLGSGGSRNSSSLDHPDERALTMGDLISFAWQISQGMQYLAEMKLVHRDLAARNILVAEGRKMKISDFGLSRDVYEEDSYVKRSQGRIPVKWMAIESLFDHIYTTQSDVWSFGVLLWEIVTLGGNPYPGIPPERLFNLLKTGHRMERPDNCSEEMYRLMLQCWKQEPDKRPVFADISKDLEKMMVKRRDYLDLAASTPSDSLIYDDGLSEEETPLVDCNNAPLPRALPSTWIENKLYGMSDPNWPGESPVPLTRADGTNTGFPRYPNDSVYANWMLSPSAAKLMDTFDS

For `N#Cc1cnn2cc(N3CCOCC3)cc(-c3ccc(N4CC5CC(C4)N5Cc4cnc5[nH]ccc5c4Cl)nc3)c12` [Compound 16], half-maximal inhibition (IC50) was put at 6.08 nM. The same measure for `COc1ccc(CN2C3CC2CN(c2ccc(-c4cc(C5=CCC(C)(O)CC5)cn5ncc(C#N)c45)cn2)C3)cn1` (stereo not shown) [Compound 42]: 1.13 nM; for `COc1ccc(CN2C3CC2CN(c2ccc(-c4cc(C5=CC(C)(C)OCC5)cn5ncc(C#N)c45)cn2)C3)cn1` [Compound 50]: 1.87 nM; for `COc1ccc(CN2C3CC2CN(c2ccc(-c4cc(C5=CCOC(C)(C)C5)cn5ncc(C#N)c45)cn2)C3)cn1` [Compound 51]: 1.73 nM. In the case of `COc1ccc(CN2C3CC2CN(c2ccc(-c4cc(N5CC[C@@H](O)C5)cn5ncc(C#N)c45)cn2)C3)cn1` [Compound 70], the IC50 was determined as 1.09 nM. For the compound `COc1ccc(CN2C3CC2CN(c2ccc(-c4cc(N5CC[C@H](O)C5)cn5ncc(C#N)c45)cn2)C3)cn1` [Compound 71], the concentration for half-maximal inhibition (IC50) worked out at 0.59 nM. Regarding `COc1ccc(CN2CCN(c3ccc(-c4cc(C5=CCOCC5)cn5ncc(C#N)c45)cn3)CC2)cn1` [Hydrochloride of compound 29], it took 1.04 nM to reach half-maximal inhibition (IC50). Consider `CN1CCC(c2cc(-c3ccc(N4CCN(Cc5c(F)cccc5F)CC4)nc3)c3c(C#N)cnn3c2)C1` (stereo not shown) [Trifluoroacetate of compound 6], for which the IC50 turned out to be 34.8 nM. Compared with the last compound, the IC50 is about 33-fold higher. For the compound `COc1ncc(CN2C3CC2CN(c2ccc(-c4cc(N5CCOCC5)cn5ncc(C#N)c45)cn2)C3)cc1F` [Trifluoroacetate of compound 15], it took 1.21 nM to reach half-maximal inhibition (IC50). For the compound `CCN1CCN(c2cc(-c3ccc(N4CC5CC(C4)N5Cc4ccc(OC)nc4)nc3)c3c(C#N)cnn3c2)CC1` [Trifluoroacetate of compound 17], 5.25 nM corresponded to half-maximal inhibition (IC50).

As for `COc1ccc(CN2C3CC2CN(c2ccc(-c4cc(N5CCN(C)C(=O)C5)cn5ncc(C#N)c45)cn2)C3)cn1` [Trifluoroacetate of compound 19], the IC50 amounted to 2.35 nM. The same measure for `COc1ccc(CN2C3CC2CN(c2ccc(-c4cc(N5CCN(C(C)=O)CC5)cn5ncc(C#N)c45)cn2)C3)cn1` [Trifluoroacetate of compound 20]: 0.9 nM; for `COc1ccc(CN2C3CC2CN(c2ccc(-c4cc(N5CCC(C)(O)CC5)cn5ncc(C#N)c45)cn2)C3)cn1` [Trifluoroacetate of compound 21]: 1.98 nM; for `N#Cc1cnn2cc(C3=CCOCC3)cc(-c3ccc(N4CC5CC(C4)N5Cc4cnc5c(c4)OCO5)nc3)c12` [Trifluoroacetate of compound 44]: 2.34 nM. The same measure for `COc1ccc(CN2C3CC2CN(c2ccc(-c4cc(C5=CCN(C)CC5)cn5ncc(C#N)c45)cn2)C3)cn1` [Trifluoroacetate of compound 46]: 1.16 nM; for `COc1ccc(CN2C3CC2CN(c2ccc(-c4cc(C5=CCC6(CC5)COC6)cn5ncc(C#N)c45)cn2)C3)cn1` [Trifluoroacetate of compound 47]: 0.63 nM.

Turning to `COc1ccc(CN2C3CC2CN(c2ccc(-c4cc(C5=CCNC(C)(C)C5)cn5ncc(C#N)c45)cn2)C3)cn1` [Trifluoroacetate of compound 48], 2.13 nM corresponded to half-maximal inhibition (IC50). The value for `COc1ccc(CN2C3CC2CN(c2ccc(-c4cc(C5=CCOC5)cn5ncc(C#N)c45)cn2)C3)cn1` [Trifluoroacetate of compound 54] was 2.42 nM. Take `N#Cc1cnn2cc(C3=CCOCC3)cc(-c3ccc(N4CC5CC(C4)N5Cc4ccc(C(F)(F)F)nc4)nc3)c12` [Trifluoroacetate of compound 56]: the IC50 stood at 0.96 nM.

On to `N#Cc1cnn2cc(N3CC[C@@H](F)C3)cc(-c3ccc(N4CC5CC(C4)N5Cc4cnc5[nH]ccc5c4)nc3)c12` [Trifluoroacetate of compound 73], for which the IC50 worked out at 0.72 nM. This IC50 and that of the compound before are within 1.5-fold of each other. `COc1ccc(CN2C3CC2CN(c2ccc(-c4cc(N5CCC(OC)C5)cn5ncc(C#N)c45)cn2)C3)cn1` (stereo not shown) [Trifluoroacetate of compound 77] had an IC50 of 4.39 nM.

Take `COc1ccc(CN2C3CC2CN(c2ccc(-c4cc(N5CCC(C)(O)C5)cn5ncc(C#N)c45)cn2)C3)cn1` (stereo not shown) [Trifluoroacetate of compound 82]: the IC50 stood at 2.34 nM.

As a reminder, the IC50 is the midpoint of a concentration-inhibition curve. Lower therefore signals greater potency in that assay.
